According to patent US20210139497A1, “THIENOCYCLIC COMPOUND AND SYNTHESIS METHOD THEREFOR AND APPLICATION THEREOF” (SHANGHAI YUYAO BIOTECH LTD., priority 2017, published 2021):

What was measured:
[1] = Cytotoxicity evaluation (CCK8), CT26; details: mouse, CT26 intestinal cancer cells
Description: (§5) Cells with a density of 2000-8000 cells per 100 μL medium were seeded in 96-well plates (Falcon, CA) and incubated for 24 hours, then treated with drugs having different concentration gradient (at least 4 replicates per concentration) and incubated at 37° C. in 5% CO2 incubator for 72 hours. Then cell viability was detected by CCK8 method. That is to say, add 10 μL CCK8 to each well and incubate for 0.33-2 h, and the OD values are read by microplate reader at 450 nm. The inhibition rate on cell survival of compounds with each concentration were calculated.
(§6) Inhibition rate on cell survival=(OD value of groups with each concentration/OD
(§7) value of control group)×100%±standard deviation.
(§8) The IC50 of drugs were calculated using GraphPad Prism 5.0.

[2] = Cytotoxicity evaluation (CCK8), PANC02; details: mouse, PANC02 pancreatic cancer cells
Description: as §5, §6, §7, §8

[3] = molecular target: T1, human prostaglandin E2 receptor EP3 subtype (Homo sapiens, UniProt P43115); assay: Calcium flux of human prostaglandin E2 receptor EP3 subtype; type: cell-based; details: CHO-K1-Gα16 cells overexpressing human EP3, activated by prostaglandin E2; read-out: hEP3 Ca^2+ IC50
T1 construct: expressed in transfected cells; host or cells: CHO-K1-Gα16
T1 sequence (P43115 1-390): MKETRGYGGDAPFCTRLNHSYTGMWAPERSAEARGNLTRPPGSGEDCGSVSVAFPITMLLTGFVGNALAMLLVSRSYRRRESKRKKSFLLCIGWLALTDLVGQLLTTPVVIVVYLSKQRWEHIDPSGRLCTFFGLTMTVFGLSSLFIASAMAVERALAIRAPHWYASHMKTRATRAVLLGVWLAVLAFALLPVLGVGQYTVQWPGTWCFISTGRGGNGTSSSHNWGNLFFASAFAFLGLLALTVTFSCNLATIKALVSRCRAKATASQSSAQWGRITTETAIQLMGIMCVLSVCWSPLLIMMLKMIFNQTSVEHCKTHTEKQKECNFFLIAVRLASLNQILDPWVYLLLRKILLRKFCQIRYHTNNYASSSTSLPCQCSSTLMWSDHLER
Description: (§1) CHO-K1-Gα16 cells at the logarithmic growth phase were transfected with human prostaglandin E2 Receptor subtypes EP1, EP2 or EP3 overexpressing vector by Lipofectamine 2000, then seeded in a 96-well plate (Falcon, CA) at a density of 20000 cells per 100 μL culture medium for overnight culture. On the second day, every single well were added with 100 μL calcium 5 detection reagents (Molecular Devices) and incubated in incubator at 37° C., 5% CO2 for 45 minutes. The compounds were diluted with HBSS detection buffer, then were added to 96-well plates. After 20 min incubation at room temperature in the dark, prostaglandin E2 at certain concentration was used to activate calcium flux of cells for detection (Flexstation 3, MD, CA).
(§2) Calculate the IC50 of the compounds of the invention in inhibiting the calcium flux of human EP1, EP2, and EP3 receptor (i.e. the concentration of drugs at which the intracellular Ca^2+ flux being inhibited by half after overexpressing human EP1, EP2, and EP3 receptors in CHO-K1-Gα16 cells). The IC50 of the drugs were calculated using GraphPad Prism 5.

[4] = molecular target: T2, human prostaglandin E2 receptor EP2 subtype (Homo sapiens, UniProt P43116); assay: Calcium flux of human prostaglandin E2 receptor EP2 subtype; type: cell-based; details: CHO-K1-Gα16 cells overexpressing human EP2, activated by prostaglandin E2; read-out: hEP2 Ca^2+ IC50
T2 construct: expressed in transfected cells; host or cells: CHO-K1-Gα16
Description: as §1, §2

[5] = Cytotoxicity evaluation (CCK8), LLC; details: mouse, LLC lung cancer cells
Description: as §5, §6, §7, §8

[6] = Cytotoxicity evaluation (CCK8), MOSJ; details: mouse, MOSJ osteosarcoma cells
Description: as §5, §6, §7, §8

[7] = molecular target: T3, human prostaglandin E2 receptor EP1 subtype (Homo sapiens, UniProt P34995); assay: Calcium flux of human prostaglandin E2 receptor EP1 subtype; type: cell-based; details: CHO-K1-Gα16 cells overexpressing human EP1, activated by prostaglandin E2; read-out: hEP1 Ca^2+ IC50
T3 construct: expressed in transfected cells; host or cells: CHO-K1-Gα16
T3 sequence (P34995 1-402): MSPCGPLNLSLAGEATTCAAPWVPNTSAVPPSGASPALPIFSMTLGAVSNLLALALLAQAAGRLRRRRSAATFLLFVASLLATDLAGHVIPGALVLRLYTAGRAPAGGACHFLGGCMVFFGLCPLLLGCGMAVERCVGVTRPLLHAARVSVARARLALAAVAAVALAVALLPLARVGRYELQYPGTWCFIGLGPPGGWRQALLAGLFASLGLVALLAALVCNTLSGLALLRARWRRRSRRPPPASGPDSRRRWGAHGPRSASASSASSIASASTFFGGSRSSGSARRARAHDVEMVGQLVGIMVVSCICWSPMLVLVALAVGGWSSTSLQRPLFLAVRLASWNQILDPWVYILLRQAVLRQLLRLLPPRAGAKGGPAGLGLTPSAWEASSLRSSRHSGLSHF
Description: as §1, §2

[8] = molecular target: T4, mouse PGE2 receptor EP4 subtype (mEP4) (Mus musculus, UniProt P32240); assay: Calcium flux of mouse prostaglandin E2 receptor EP4 subtype; type: cell-based; details: CHO-K1-Gα16 cells overexpressing mEP4, calcium flux activated by prostaglandin E2; read-out: mEP4 Ca^2+ IC50
T4 construct: expressed in transfected cells; host or cells: CHO-K1-Gα16
Description: (§3) CHO-K1-Gα16 cells at the logarithmic growth phase were transfected with EP4 overexpressing vector by Lipofectamine 2000 and then seeded in a 96-well plate (Falcon, CA) and cultured at 20000 cells per 100 μL culture medium overnight. On the second day, every single well were added with 100 μL calcium 5 detection reagents (Molecular Devices) and incubated in incubator at 37° C., 5% CO2 for 45 minutes. The compounds were diluted in HBSS detection buffer, then added to 96-well plates. After incubated for 20 min at room temperature away from light, certain concentration of prostaglandin E2 was used to activate calcium flux of cells for detection (Flexstation 3, MD, CA).
(§4) Calculate the IC50 of the compounds of the invention in inhibiting the calcium flux of human PGE2 receptor EP4 subtype (hEP4) and mouse PGE2 receptor EP4 subtype (mEP4) (i.e. the concentration of drugs at which the intracellular Ca^2+ flux is inhibited by half after overexpressing hEP4 and mEP4 receptors in CHO-K1-Gα16 cells). The IC50 of the drugs were calculated using GraphPad Prism 5.

[9] = Cytotoxicity evaluation (CCK8), 293; details: human
[10] = Cytotoxicity evaluation (CCK8), EMT-6; details: mouse, EMT-6 breast cancer cells
Description: as §5, §6, §7, §8

[11] = molecular target: T5, human PGE2 receptor EP4 subtype (hEP4) (Homo sapiens, UniProt P35408); assay: Calcium flux of human prostaglandin E2 receptor EP4 subtype; type: cell-based; details: CHO-K1-Gα16 cells overexpressing hEP4, calcium flux activated by prostaglandin E2; read-out: hEP4 Ca^2+ IC50
T5 construct: expressed in transfected cells; host or cells: CHO-K1-Gα16
Description: as §3, §4

T4 sequence (P32240 whole entry): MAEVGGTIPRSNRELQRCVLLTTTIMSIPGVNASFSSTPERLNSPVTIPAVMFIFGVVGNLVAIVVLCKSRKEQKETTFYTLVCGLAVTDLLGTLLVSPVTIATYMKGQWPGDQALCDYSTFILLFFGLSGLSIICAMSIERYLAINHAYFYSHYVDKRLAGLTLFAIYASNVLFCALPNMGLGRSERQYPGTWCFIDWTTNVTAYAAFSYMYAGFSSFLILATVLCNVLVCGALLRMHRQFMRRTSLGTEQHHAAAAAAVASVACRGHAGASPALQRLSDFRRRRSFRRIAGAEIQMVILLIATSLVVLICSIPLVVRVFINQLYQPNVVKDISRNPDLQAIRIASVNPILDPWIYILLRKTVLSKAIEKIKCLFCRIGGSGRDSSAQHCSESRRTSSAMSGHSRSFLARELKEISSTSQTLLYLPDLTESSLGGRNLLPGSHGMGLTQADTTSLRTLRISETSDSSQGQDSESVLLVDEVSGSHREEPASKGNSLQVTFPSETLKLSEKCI
T5 sequence (P35408 whole entry): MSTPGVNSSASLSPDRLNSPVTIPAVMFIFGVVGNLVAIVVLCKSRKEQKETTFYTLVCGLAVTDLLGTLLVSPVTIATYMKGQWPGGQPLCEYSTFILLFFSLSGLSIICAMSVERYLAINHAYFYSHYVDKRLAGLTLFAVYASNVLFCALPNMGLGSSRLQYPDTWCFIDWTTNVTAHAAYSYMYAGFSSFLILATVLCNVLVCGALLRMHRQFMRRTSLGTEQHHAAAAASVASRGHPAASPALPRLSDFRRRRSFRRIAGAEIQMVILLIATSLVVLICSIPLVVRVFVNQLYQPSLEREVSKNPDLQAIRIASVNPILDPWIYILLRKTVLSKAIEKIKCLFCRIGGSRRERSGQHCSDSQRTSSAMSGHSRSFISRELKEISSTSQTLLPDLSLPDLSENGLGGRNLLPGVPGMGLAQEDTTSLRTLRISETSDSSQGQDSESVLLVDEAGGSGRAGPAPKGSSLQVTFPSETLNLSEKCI
T2 sequence (P43116 whole entry): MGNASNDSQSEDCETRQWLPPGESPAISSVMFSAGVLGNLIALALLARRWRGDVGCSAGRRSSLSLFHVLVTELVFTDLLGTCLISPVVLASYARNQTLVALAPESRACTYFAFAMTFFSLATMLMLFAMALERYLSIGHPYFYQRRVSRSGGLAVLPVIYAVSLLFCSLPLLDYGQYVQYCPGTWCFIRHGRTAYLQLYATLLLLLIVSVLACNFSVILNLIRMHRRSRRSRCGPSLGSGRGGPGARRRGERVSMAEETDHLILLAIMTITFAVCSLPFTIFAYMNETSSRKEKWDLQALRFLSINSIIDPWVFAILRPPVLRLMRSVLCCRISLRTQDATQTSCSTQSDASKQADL

Row | Compound | IC50 [3] [µM] | IC50 [4] [µM] | IC50 [7] [µM] | IC50 [8] [µM] | IC50 [11] [µM] | IC50 at 72 h [1] [µM] | IC50 at 72 h [2] [µM] | IC50 at 72 h [5] [µM] | IC50 at 72 h [6] [µM] | IC50 at 72 h [9] [µM] | IC50 at 72 h [10] [µM]
1 | C[C@H](NC(=O)c1c(C#Cc2ccc(F)cc2)sc2c1CC(C)(C)OC2)c1ccc(C(=O)O)cc1 [YJ105, (S)-4-(1-(2-((4-fluorophenyl)ethynyl)-5,5-dimethyl-5,7-dihydro-4H-thieno[2,3-c]pyran-3-carboxamido)ethyl)benzoic Acid] |  |  |  |  | 0.1 to 1 |  |  |  |  |  | 
2 | Nc1ccn([C@@H]2O[C@H](CO)[C@@H](O)C2(F)F)c(=O)n1 [gemcitabine, reference compound] |  |  |  |  |  | 0.016 ± 0.0001 | 0.0726 ± 0.0003 | 0.0053 ± 0.0002 |  | 0.0051 ± 0.0001 | 
3 | C[C@H](NC(=O)c1c(Cc2cccc(F)c2)sc2c1CCOC2)c1ccc(C(=O)O)cc1 [YJ123, (S)-4-(1-(2-(3-fluorobenzyl)-4,7-dihydro-5H-thieno[2,3-c]pyran-3-carboxamido)ethyl)benzoic Acid] |  |  |  |  | < 0.1 |  |  |  |  |  | 
4 | C[C@H](NC(=O)c1c(CCc2ccc(F)cc2)sc2c1CCC2)c1ccc(C(=O)O)cc1 [YJ109, (S)-4-(1-(2-(4-fluorophenethyl)-5,6-dihydro-4H-cyclopenta[b]thiophene-3-carboxamido)ethyl)benzoic Acid] |  |  |  | < 0.1 |  | > 100 | > 100 | > 100 | > 100 | > 100 | > 100
5 | C[C@H](NC(=O)c1c(CCc2cccc(F)c2)sc2c1CCOC2)c1ccc(C(=O)O)cc1 [YJ113, (S)-4-(1-(2-(3-fluorophenethyl)-4,7-dihydro-5H-thieno[2,3-c]pyran-3-carboxamido)ethyl)benzoic Acid] | > 10 | > 10 | > 10 | 0.1 to 1 | < 0.1 | > 100 | > 100 | > 100 | > 100 | > 100 | > 100
6 | COc1ccc(CCc2sc3c(c2C(=O)N[C@@H](C)c2ccc(C(=O)O)cc2)CCOC3)cc1 [YJ122, (S)-4-(1-(2-(4-methoxyphenethyl)-4,7-dihydro-5H-thieno[2,3-c]pyran-3-carboxamido)ethyl)benzoic Acid] |  |  |  |  | < 0.1 |  |  |  |  |  | 
7 | C[C@H](NC(=O)c1c(CCc2ccc(F)cc2)sc2c1CC(C)(C)OC2)c1ccc(C(=O)O)cc1 [YJ110, (S)-4-(1-(2-(4-fluorophenethyl)-5,5-dimethyl-5,7-dihydro-4H-thieno[2,3-c]pyran-3-carboxamido)ethyl)benzoic Acid] | > 10 | > 10 | > 10 | < 0.1 | < 0.1 | > 100 | > 100 | > 100 | > 100 | > 100 | > 100
8 | O=C(NCC1CCC(C(=O)O)CC1)c1c(Cc2ccc(F)cc2)sc2c1CCOC2 (centres unmarked) [YJ130, 4-((2-(4-fluorobenzyl)-4,7-dihydro-5H-thieno[2,3-c]pyran-3-carboxamido)methyl)cyclohexane-1-carboxylic Acid] |  |  |  | 0.1 to 1 | < 0.1 |  |  |  |  |  | 
9 | C[C@H](NC(=O)c1c(C#Cc2ccc(F)cc2)sc2c1CCC2)c1ccc(C(=O)O)cc1 [YJ102, (S)-4-(1-(2-((4-fluorophenyl)ethynyl)-5,6-dihydro-4H-cyclopenta[b]thiophene-3-carboxamido)ethyl)benzoic Acid] |  |  |  | < 0.1 | < 0.1 |  |  |  |  |  | 
10 | C[C@H](NC(=O)c1c(C#Cc2ccc(F)cc2)sc2c1CCOC2)c1ccc(C(=O)O)cc1 [YJ101, (S)-4-(1-(2-((4-fluorophenyl)ethynyl)-5,7-dihydro-4H-thieno[2,3-c]pyran-3-carboxamido)ethyl)benzoic Acid] | > 10 | > 10 | > 10 | 0.1 to 1 |  | > 100 | > 100 | > 100 | > 100 | > 100 | > 100
11 | C[C@H](NC(=O)c1c(Cc2cccc(Cl)c2)sc2c1CCOC2)c1ccc(C(=O)O)cc1 [YJ126, (S)-4-(1-(2-(3-chlorobenzyl)-4,7-dihydro-5H-thieno[2,3-c]pyran-3-carboxamido)ethyl)benzoic Acid] |  |  |  |  | < 0.1 |  |  |  |  |  | 

Now from value to molecule, other results behind:

Row | IC50 [3] [µM] | IC50 [4] [µM] | IC50 [7] [µM] | IC50 [8] [µM] | IC50 [11] [µM] | Compound | IC50 at 72 h [1] [µM] | IC50 at 72 h [2] [µM] | IC50 at 72 h [5] [µM] | IC50 at 72 h [6] [µM] | IC50 at 72 h [9] [µM] | IC50 at 72 h [10] [µM]
12 | 1 to 10 | 1 to 10 | 1 to 10 | < 0.1 | < 0.1 | C[C@H](NC(=O)c1c(NCc2ccc(C(F)(F)F)cc2)sc2c1CCOC2)c1ccc(C(=O)O)cc1 [YJ121, (S)-4-(1-(2-((4-(trifluoromethyl)benzyl)amino)-5,7-dihydro-4H-thieno[2,3-c]pyran-3-carboxamido)ethyl)benzoic Acid] | 10 to 100 | 10 to 100 | 10 to 100 | 10 to 100 | 10 to 100 | 10 to 100
13 |  |  |  | < 0.1 | < 0.1 | C[C@H](NC(=O)c1c(CCc2ccc(C(F)(F)F)cc2)sc2c1CCOC2)c1ccc(C(=O)O)cc1 [YJ111, (S)-4-(1-(2-(4-(trifluoromethyl)phenethyl)-5,7-dihydro-4H-thieno[2,3-c]pyran-3-carboxamido)ethyl)benzoic Acid] |  |  |  |  |  | 
14 |  |  |  |  | < 0.1 | C[C@H](NC(=O)c1c(Cc2ccc(F)c(F)c2)sc2c1CCOC2)c1ccc(C(=O)O)cc1 [YJ127, (S)-4-(1-(2-(3,4-difluorobenzyl)-4,7-dihydro-5H-thieno[2,3-c]pyran-3-carboxamido)ethyl)benzoic Acid] |  |  |  |  |  | 
15 |  |  |  |  | < 0.1 | COc1ccc(Cc2sc3c(c2C(=O)N[C@@H](C)c2ccc(C(=O)O)cc2)CCOC3)cc1 [YJ128, (S)-4-(1-(2-(4-methoxybenzyl)-4,7-dihydro-5H-thieno[2,3-c]pyran-3-carboxamido)ethyl)benzoic Acid] |  |  |  |  |  | 
16 | > 10 | > 10 | > 10 | 0.1 to 1 | < 0.1 | C[C@H](NC(=O)c1c(C#Cc2ccc(F)cc2)sc2c1CCCCC2)c1ccc(C(=O)O)cc1 [YJ104, (S)-4-(1-(2-((4-fluorophenyl)ethynyl)-5,6,7,8-tetrahydro-4H-cyclohepta[b]thiophene-3-carboxamido)ethyl)benzoic Acid] | > 100 | > 100 | > 100 | > 100 | > 100 | > 100
